Here are results for 1 compound from patent US20240118263A1, “TARGET FOR SCREENING ANTI-TUMOR DRUG, USE THEREOF AND SCREENING METHOD THEREFOR” (SHENYANG FUYANG PHARMACEUTICAL TECHNOLOGY CO., LTD., priority 2019, published 2024).

Entries after “also recorded” stand apart in the source; their conditions may differ.

The test system of data set [1] is LN229-luc intracranial tumor. Briefly: Intracranial LN229-luc glioblastoma xenograft mouse model. The data set is classed as in vivo, NSG mice. The conditions noted are these: ISP I 66 mg/kg intraperitoneally daily, vs control group. The text has this:
The inventors first assessed ISP I's anti-tumor activity in an intracranial mouse model (FIG. 13A). NSG mice were inoculated with 1×10^5 LN229-luc cells in the right-frontal cortex. After 7 days, intracranial tumor growth was confirmed via noninvasive in vivo bioluminescence imaging and mice were randomized into ISP I or DMSO (control) treatment groups.
Mice experiments were approved by the National Institute of Neurological Disorders and Stroke (NINDS) and National Cancer Institute (NCI) Animal Use and Care Committees. For intracranial xenografts establishment, NOD-Prkde^scidIl2rg^tmiWjl (NSG) mice (6-8 weeks old from the NCI-Frederick animal facility) were inoculated intracranially with 100,000 LN229-luc cells suspended in 2 μL Hank's Balanced Salt Solution (HBSS), a product of Crystalgen (Commack, NY USA). After one week, luciferin signals were detected to confirm the survival of tumor cells in mice. The mice were assigned to the indicated groups according to the signal intensity, in order to keep the baseline balanced. ISP I was injected intraperitoneally daily at a dose of 66 mg/kg body weight for 24 days. The mice in control group were injected with the same volume of corn oil or saline. The viability of tumors was monitored every four days. […]

In data set [2] the test system is human non-small cell lung cancer cells A549. Briefly: MTT in-vitro anti-tumor activity test, A549. The conditions noted are these: MTT.
Description: Experimental Materials Human non-small cell lung cancer cells A549, mouse breast cancer cells 4T-1 and mouse melanoma B16-BL6 were purchased from American Type Current Collection (ATCC, Rockville, MD, USA). An RPMI-1640 culture solution containing 10% of fetal calf serum and 2% of glutamine was inoculated with the A549, 4T-1 and B16-BL6 cells, and the cells were incubated at 37° C. in a 5% CO2 incubator.
The compounds were dissolved in DMSO under a sterile condition, and the obtained solutions were diluted to required concentrations by using an RPMI 1640 culture solution, wherein the final concentration of the DMSO was less than 0.5%.
MTT reduction method is used.
A549, 4T-1 and B16-BL6 were used as adherent cells, adherent tumor cells in a logarithmic phase were selected, digested with pancreatin, and then prepared into a cell suspension of 5×10^4/ml with a culture medium containing 10% of calf serum, a 96-well culture plate was inoculated with the cell suspension, wherein each well contained 100 μl of the cell suspension, and incubation was carried out for 24 h at 37° C. and 5% CO2. Replacing was carried out with a new culture solution containing the samples to be detected of different concentrations in the experimental groups, replacing was carried out with a culture solution containing a same volume of solvent in the control group, three parallel wells were set in each group, and incubation was carried out for 48 hours at 37° C. and 5% CO2. The supernate was discarded, careful washing was carried out with PBS twice, 100 μl of a freshly prepared culture medium containing 0.5 mg/ml of MTT was added into each well, and incubation was continued to be carried out at 37° C. for 4 h. The supernatant was carefully discarded, 150 μl of DMSO was added, uniform mixing was carried out for 10 min by using a micro oscillator, and the optical density value was measured at 492 nm by using a microplate reader.
Tumor cell growth inhibition ratio (%)=[A492 (negative control)−A492 (dosing group)]/A492 (negative control)×100%
The median inhibitory concentration (IC50) of the sample is calculated.
The subject of another data set is 786-O and RCC4 cells. Nature of the data set: Cell cycle analysis by flow cytometry, RCC cells. The data set is classed as cell-based. On the procedure:
Cell viability was assessed similarly via CKK8 analysis. […] (FIG. 10C, D).
For monitoring cell-cycle arrest of ISP I-treated cells, Click-iT EdU Flow Cytometry Assay Kits were used, a product of ThermoFisher Scientific. Cells were co-cultured with EdU at a concentration of 10 μM for 1 hour. After fixation and permeabilization, EdU-positive cells were labeled with Alexa Fluor 647 fluorescein. DAPI also was used for measuring total DNA content to identify differences in cell cycle phases. Data were collected by means of a BD LSRFortessa flow cytometer using FlowJo software. Cells that are positive with EdU and DAPI were in S-Phase of the cell cycle.

A further data set concerns the target SELH (Sec44→Cys44) (Homo sapiens, UniProt Q8IZQ5, U44C). Briefly: SPR assay of ISP I with SELH synthesized in bacteria. The data set is classed as binding. The source says: (§1) Next, the inventors used a thermo-stability assay to confirm SELH was targeted by ISP I in LN229 and 786-O cell lines. The principle of the assay is based on altered protein thermal stabilization/destabilization due to ligand binding in living cells. […] (FIG. 11B and FIG. 12A). To verify further the specificity of ISP I's targeting of SELH, the inventors designed a surface plasmon resonance assay to assess the interaction of ISP I with SELH synthesized in bacteria.
The affinities constant (KD) and kinetics (ka and kd) of ISP I binding to SELH (Sec44→Cys44) were assayed using Biacore 8K (GE Healthcare, Sweden), all at 25° C. […] Coupling conditions were determined by protein isoelectric points. […]
To determine the binding affinity between ISP I and SELH (Sec44→Cys44), a series of ISP I dilutions was analyzed by single-cycle kinetics. […] The ISP I at various gradient concentrations and one zero concentration (running buffer) flowed over the immobilized SELH, with 120 s for binding, followed by disassociation for 120 s, and the obtained response units (RUs) were recorded. The RU values were collected, and the binding affinity data were calculated by kinetic models (1:1 interaction) within Biacore 8K Evaluation Software. The equilibrium dissociation constant (KD) was calculated to evaluate the ability of ISP I to interact with SELH.
(Surface plasmon resonance follows binding to a sensor surface in real time, without labels.)

The next data set deals with SELH (Homo sapiens (Human), UniProt Q8IZQ5). Nature of the data set: Thermo-stability assay (CETSA) in LN229 and 786-O cell lines. The conditions noted are these: western blot, vs DMSO. The data set is classed as binding.
SELH, sequence (Q8IZQ5 whole entry): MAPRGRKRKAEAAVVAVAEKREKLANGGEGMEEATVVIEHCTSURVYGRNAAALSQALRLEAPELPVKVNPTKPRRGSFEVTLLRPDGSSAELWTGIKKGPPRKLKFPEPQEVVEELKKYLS
Description: as §1
CETSA experiments were performed to determine the ISP I-related ligand induced shifts. Intact and live cells in a 10-cm dish were harvested, washed and resuspended in PBS with protease inhibitor cocktail. Protein of the cells was extracted by freeze-thaw more than three times, using liquid nitrogen. The supernatant was centrifuged at 20,000 g for 20 min at 4° C. Then the samples were aliquoted to several groups incubated with different concentrations of ISP I for 1 hour. After that, samples were aliquoted into PCR tubes and thereafter heated at gradient temperature ranging from 40° C. to 80° C. for 3 min. Then the samples were centrifuged again and resolved using 4-12% SDS-PAGE followed by western blot experiments.
In general terms: Immunoblotting shows a protein as a band on a membrane.

Data set [3] in a line: Veterinary histopathology review of major organs and clinical chemistry. The data set is classed as in vivo. The conditions noted are these: 24 days after treatment.
Data set [4] deals with B16 melanoma lung metastasis. Nature of the data set: Metastatic murine melanoma (B16) lung metastasis model. The data set is classed as in vivo, C57BL/6 mice. The conditions noted are these: ISP I 35 mg/kg intraperitoneally daily, 12 days, vs saline. On the procedure: In addition to the aforementioned xenograft tumor models, the anti-tumor activity of ISP I was assessed in a metastatic murine melanoma (B16) model. Mice were intravenously injected with 2×10^5 B16 cells and randomized into the following three treatment groups: ISP I (35 mg/kg), Carrimycin (56 mg/kg), Saline (control) (FIG. 13D).
For metastasis study, C57BL/6 mice (4-5 weeks) from Charles River Laboratories (Wilmington, MA USA) were assigned randomly to one or another of two groups, 9 animals per group. B16-F10 mouse skin melanoma cells (2×10^5) were resuspended in 100 μl saline and injected through tail vein. After treatment with ISP I at 35 mg/kg for 12 days, all mice were euthanized, and the lungs were examined for counting black metastasis dots.

SELH (Sec44→Cys44), sequence (Q8IZQ5 with tags, fused parts or gaps U44C): as the sequence (Q8IZQ5 whole entry) above, with U44C counted along it

With `CO[C@@H]1[C@@H](O[C@@H]2O[C@H](C)[C@@H](O[C@H]3C[C@@](C)(O)[C@@H](OC(=O)CC(C)C)[C@H](C)O3)[C@H](N(C)C)[C@H]2O)[C@@H](CC=O)C[C@@H](C)[C@@H](O[C@H]2CC[C@H](N(C)C)[C@@H](C)O2)/C=C/C=C/C[C@@H](C)OC(=O)C[C@H]1O` [Isovalerylspiramycin I, 4″-isovalerylspiramycin I], the “tumor growth by bioluminescence imaging” value in data set [1] is “significantly reduced tumor growth; also recorded: complete response”. Besides, the “inhibition effect on A549 cells (in words)” value in data set [2] is reported as “significantly inhibited the human lung cancer A549 cells”. For the same compound, the cell-cycle arrest entry in the data set with 786-O and RCC4 cells is reported as “induced cell-cycle arrest in the G0/G1 phase”. The “binding to SELH versus other proteins” value on SELH (Sec44→Cys44) is given as “tightly binds to SELH but does not bind with the other proteins”. Besides, the “thermal protection of SELH” value at SELH is “protective effect of ISP I on SELH was present over a range of increasing temperatures”. Also, in data set [3], the “toxicities in major organs and clinical chemistry” value was “no hematologic, renal, pancreatic or liver toxicities”. Further, the lung tumor nodules result in data set [4] is “significantly reduced lung tumor nodules”.
